The values below come from patent publication US20170079278A1 (priority 2015, published 2017).

Test [1] has as its system Paja de Zorro (Leptochloa filiformis). Briefly: Field trial butachlor +/- EPAC, weed control. The class given is in vivo. The note with it: butachlor section.
Test [2] relates to Corn. Briefly: Field trial paraquat +/- EPAC, crop dissecation. The note with it: A = 100% alone, B = 40% + EPAC 4%. Type of test: in vivo.
Test [3] deals with White Fly (Aleyrodidae). Briefly: Field trial cypermethrin +/- EPAC, pest control in tomato crops. The class given is in vivo.
In test [4] the test system is White Fly (Aleyrodidae). Briefly: Field trial profenophos +/- EPAC, pest control in tomato crops. The class given is in vivo.
The subject of test [5] is Falsa Caminadora (Ischaemum rugosum). Briefly: Field trial pendimethalin +/- EPAC, weed control in rice fields. Type of test: in vivo.
The test system of test [6] is Mycosphaerella fijiensis. Briefly: Sensitivity test of ascospores (germination, germ tube elongation) to azoxystrobin +/- EPAC-F. To be noted: Black Sigatoka, banana crops. The class given is cell-based. On the procedure: In a study in experimental conditions the effectiveness of EPAC-F was evaluated by a sensitivity test to Mycosphaerella fijiensis (from a banana farm in Santa Marta), causal agent of Black Sigatoka, following the recommendations of the Fungicide Resistance Action Committee's (FRAC) to strobilurin fungicides from.
The test is based on measuring the length elongation ascospore germ tube that germinated in culture medium 2% agar, modified with a number of products made by mixing the adjuvant, EPAC-F and fungicide Liege 25 SC, whose active ingredient is Azoxystrobin 250 g/L. Then the following 11 treatments were evaluated are as follows:
T1. Azoxystrobin 25% SC 100 at a dose of 400 cc/Ha. T2. Azoxystrobin 25 SC 50% at doses of 400 cc/Ha.+EPAC 10% T3. Azoxystrobin 25 SC 50% at doses of 400 cc/Ha.+EPAC 20% T4. Azoxystrobin 25 SC 70% at doses of 400 cc/Ha.+EPAC 10% T5. Azoxystrobin 25 SC 60% at doses of 400 cc/Ha.+EPAC 10% T1A. Azoxystrobin SC 25 50% at doses of 200 cc/Ha.+EPAC5% T2A. Azoxystrobin SC 25 50% at doses of 200 cc/Ha.+10% EPAC T3A. Azoxystrobin SC 25 50% at doses of 200 cc/Ha.+15% EPAC T4A. Azoxystrobin SC 25 25% at doses of 200 cc/Ha.+10% EPAC T5A. Azoxystrobin SC 25 25% at doses of 200 cc/Ha.+15% EPAC
The control process involved the use of fungicide Amystar 50 WG with the active ingredient Azoxystrobin 500 g/L. This product is considered direct competition from […]. […]

Test [7] deals with Paja de Zorro (Leptochloa filiformis). Briefly: Field trial clomazone +/- EPAC, weed control in rice fields. The class given is in vivo.
In test [8] the test system is Coffe Borer Beetle. Briefly: Field trial chlorpyrifos +/- EPAC, pest control in coffee fields. The class given is in vivo.
The test system of test [9] is adult T. vaporariorum; White Fly (Aleyrodidae). Briefly: Methamidophos/EPAC-I on adult whitefly on tomato. The class given is in vivo, Trialeurodes vaporariorum. The arrangement: concentration or dose not given beside the values. The note with it: tomato crops. The procedure: The effectiveness of EPAC-I was assessed with adult T. vaporariorum under experimental conditions taking into account the percentage of mortality by direct and indirect contact with the insects.
The completion of the performance test EPAC-I with adults of T. vaporariorum was carried out directly on whitefly adults collected from breeding individuals in the “Bio-Systems Center”. These were placed in a box with mesh which allows passage of the droplets in the spray. Product application was performed with an airbrush at a distance of 30 cm and a 45° angle on the application unit, achieving a uniform coverage with fine droplets. The quality was verified through application of a strip (2×2 cm) of water-sensitive paper.
To assemble the test, from tomato plants we selected randomly 5 leaflets per treatment and then were sprayed and once dried, in each bags mesh were placed into which 10 adults whiteflies were placed, and each of these units was duly marked according to the assessed treatment. Tomato plants with the evaluation units were maintained in a room with controlled temperature (20±1° C.), relative humidity (70±10%) and photoperiod of 12 h. The evaluation design was completely randomized and readings from day one after application to day 10 were performed.

Test [10] concerns Piñita (Murdania Nudiflora). Briefly: Field trial glyphosate +/- EPAC, weed control in rice. Type of test: in vivo. To be noted: A = chemical alone at 100%, B = reduced dose + EPAC.
For test [11], the system named is Leptocloa. Described as above. The class given is in vivo. To be noted: A = 100% alone, B = reduced dose + EPAC.
Test [12] deals with Guardarocio (Digitaria Sanguinalis). The test is described as above. The note with it: A = 100% alone, B = reduced dose + EPAC. Type of test: in vivo.
Test [13] concerns Cortadera (Cortaderia Selloana). Described as above. The class given is in vivo. To be noted: A = 100% alone, B = reduced dose + EPAC.
The subject of test [14] is Liendrepuerco (Echinochia Colonum). Described as above. To be noted: A = 100% alone, B = reduced dose + EPAC. Type of test: in vivo.
For test [15], the system named is Coquito (Cyperus rotundus). Briefly: Field trial atrazine +/- EPAC, weed control in corn. The class given is in vivo.
Test [16] relates to Bledo (Amaranthus Albus). Briefly: Field trial oxadiazone +/- EPAC, weed control in rice fields. Type of test: in vivo.

Take `CCCCOCN(C(=O)CCl)c1c(CC)cccc1CC` [Butachlor]: the “% of Weeds Controlled” value is recorded as 93% in test [1] (3 Days), 100% in test [1] (8 Days) and 100% in test [1] (15 Days).
Regarding `C[n+]1ccc(-c2cc[n+](C)cc2)cc1` [Paraquat], the “% of Crop Dissecated” value in test [2] came out at 100%.
Regarding `CC1(C)C(C=C(Cl)Cl)C1C(=O)OC(C#N)c1cccc(Oc2ccccc2)c1` (stereo not shown) [Cypermethrin], the “% of Pest Controlled” value in test [3] (3 Days) is 90%; in test [3] (8 Days), 87%; in test [3] (15 Days), 76%.
For the compound `CCCSP(=O)(OCC)Oc1ccc(Br)cc1Cl` (stereo not shown) [Profenophos], the “% of Pest Controlled” value in test [4] (7 Days) stood at 92%; in [4] (12 Days), 82%; in test [4] (15 Days), 75%.
In the case of `CCC(CC)Nc1c([N+](=O)[O-])cc(C)c(C)c1[N+](=O)[O-]` [Pendimenthaline], the “% of Weeds Controlled” value in test [5] (3 Days) is given as 86.7%; in [5] (8 Days), 96.7%; in test [5] (15 Days), 93%.
Turning to `CO/C=C(\C(=O)OC)c1ccccc1Oc1cc(Oc2ccccc2C#N)ncn1` [Axozystrobin], in test [6], the “Fungus Inhibition: % Ascospore Germination Inhibited” value came to 24% and the “Fungus Inhibition: % Ascospore elongation Inhibition (>150 microm)” value amounted to 37%.
For `CC1(C)CON(Cc2ccccc2Cl)C1=O` [Clomazone], the “% of Weeds Controlled” value in [7] (3 Days) is listed as 97%; in [7] (8 Days) it was 93%; in [7] (15 Days), 100%.
Turning to `CCOP(=S)(OCC)Oc1nc(Cl)c(Cl)cc1Cl` [Chlorpyrifos], the “% of Pest Controlled” value in [8] (7 Days) was determined as 88%; in test [8] (14 Days) it was 83%; in [8] (21 Days), 73%.
As for `COP(N)(=O)SC` (stereo not shown) [Metamidhophos, O, S-dimethyl-phosphoramidothioate], the “% of Pest Controlled” value was found to be 10% in test [9] (1 Day); 30% in test [9] (4 Days); 42% in test [9] (6 Days); 46% in test [9] (8 Days); 50% in test [9] (10 Days).
For `O=C(O)CNCP(=O)(O)O` [Glyphosate, N-phosphonomethyl-glycine], the “% of Weeds Controlled” value in [10] is reported as 83%; in [11], 100%; in test [12], 82%; in test [13], 90%; in [14], 93%.
As for `CCNc1nc(Cl)nc(NC(C)C)n1` [Atrazine], the figures for the “% of Weeds Controlled” value in test [15] (7 Days), in test [15] (14 Days) and in test [15] (21 Days) were 93%, 90% and 90%, respectively.
On to `CC(C)Oc1cc(-n2nc(C(C)(C)C)oc2=O)c(Cl)cc1Cl` [Oxadiazone], for which the “% of Weeds Controlled” value is listed as 87% in [16] (3 Days), 97% in [16] (8 Days) and 100% in test [16] (15 Days).
